Assay results: patent US4874776A, “Compound having mucus regulating and elastase-inhibitory activities, for the therapy of pulmonal emphysema and pulmonal fibrosis” (Yason S.r.l., priority 1988, dated 1989)

Legend:
[1] = Acute toxicity (LD50, Litchfield and Wilcoxon) in the rat; conditions: in vivo, read-out: DL50 (the source's name)
Method: (§1) Acute toxicity of YS 795 was calculated in the rat and the mouse after both oral and intraperitoneal administrations.
(§2) LD50 was determined according to the method of Litchfield and Wilcoxon (J. Pharmacol. Exp. Therap. 96, 99-118, 1949).

[2] = Acute toxicity (LD50, Litchfield and Wilcoxon) in the mouse; conditions: in vivo, read-out: DL50 (the source's name)
Method: as §1, §2

elastase = assay: Elastase-inhibitory activity; assay type: biochemical
Method: Inhibition of elastase activity by YS 795 was evaluated according to the method by D. A. Hall, S. El Ridi (Methods of connective tissue research, Ioyson-Bruvvers Ltd.; Oxford--1976) and by R. M. Senior et al. (Elastine and elastic Tissue, Plenum Press, pp. 249-254, New York--1977).

[3] = test system: emphysema induced by porcine pancreatic elastase; assay: Emphysema induced by porcine pancreatic elastase in the hamster; assay type: in vivo
Method: Emphysema induced by porcine pancreatic elastase in the hamster.
Capability of YS 795 in preventing emphysema caused by instillation of elastase was studied according to the method by Stone P. J. et al. (Am. Rev. Respir. Dis.; 124/1; 1981) and by Yu et al. ("Elastin and elastic tissues"; Plenum Press; New York; 1977).
16 Hamsters weighing 100-120 g were divided in 4 groups of 4 animals each (Groups A, B, C and controls) and treated as follows:
Group A: in tratracheal instillation of 0,1 mg of porcine pancreatic elastase 1 hour after administration of 100 mg/kg of YS 795.
Group B: YS 795 was administered 1 hour after elastase instillation.
Group C: YS 795 was administered 4 hours after elastase instillation.
Controls: physiological saline was administered 1 hour after elastase instillation.
At set times (72 hours and 12 days), the animals were killed after intraperitoneal anesthesia with pentobarbital. Lungs were intubated through trachea and fixed.
Morphological and morphometrical analysis of the pulmonal sections were then carried out under a microscope.

collagenase = assay: Collagenase inhibitory activity; assay type: biochemical; conditions: read-out: IC50 collagenase inhibition
Method: The inhibition of collagenase by means of YS 795 was evaluated according to the method by C. L. Hu, G. Crombie, C. Franzeblau (Analyt., Biochem. 88, 638, 1978).

[4] = test system: secretion of respiratory tract; assay: Bronchosecretagogue activity, sodium fluoresceine test; assay type: in vivo, rat; conditions: male Wistar rats, 100 mg/kg; for SODIUM FLUORESCEINE: 10 animals
Method: Bronchosecretagogue activity was evaluated by means of sodium fluoresceine test, according to the procedure by Mawatari ("Experimental studies on the expectorant action of several drugs" Kagoshima Kaigaken Igaken Zasshi 27, 561, 1976), said test consisting in determining the sodium fluoresceine amount eliminated from respiratory tract: the higher the secretion, the higher the amount of sodium fluoresceine eliminated. Accordingly, any compound increasing the secretion of respiratory tract causes an increase in sodium fluoresceine elimination, which can easily be calculated.
Male Wistar rats (100-200 g body weight), fasted for 18 hours, with water "ad libitum", were administered with YS 795 at the dose of 100 mg/kg and, by comparison, with carboxymethyl cystein at equiponderal doses, by the oral route.
30 minutes after the treatment, sodium fluoresceine was injected subcutaneously and 30 minutes after the animals were killed by bleeding. The whole respiratory tree was then withdrawn and the percentage of sodium fluoresceine present was evaluated.

[5] = test system: hepatic intoxication induced by carbon tetrachloride; assay: Hepato-protecting activity, hepatic intoxication induced by carbon tetrachloride; assay type: in vivo, rat; conditions: male Wistar rats, 100 mg/kg i.p.; for GPT x ± es: 15 minutes before CCl4 0,15 ml/kg oral, 24 hours; for GPT % INHIBITION VS. CONTROLS: CCl4 0,15 ml/kg
Method: Hepato-protecting activity of YS 795 was evaluated in comparison with N-acetylcystein, by means of the test of hepatic intoxication induced by carbon tetrachloride, according to the method by Sanna et al. (Experientia, 32 (1), 91, 1976).
Male Wistar rats (268-346 g body weight) fasted for 18 hours, with water "ad libitum", were used.
YS 795 and N-acetylcystein were administered intraperitoneally at the dose of 100 mg/kg, whereas the control group received the only carrier.
15 minutes after the drug administration, the animals were treated orally with 0,15 ml/kg of carbon tetrachloride.
After 24 more hours, the animals were killed by bleeding after ether anesthesia.

[6] = Pharmacokinetics, plasma and tissue concentrations by gaschromatographic analysis; assay type: in vivo; conditions: rat
Method: Male CD-COBS rats weighing 200-220 g were used, treated with YS 795 and 4-thiazolidine-carboxylic acid by the oral or intraperitoneal route, in equimolecular amounts (YS 795=795=100 mg/kg; thiazolidine-carboxylic acid =65 mg/kg).
One hour after the treatment the animals were killed by beheading; blood was collected in heparinized test-tubes and centrifuged for 10 minutes at 3500 rpm to prepare plasma. The tissues (liver, lung, kidney and brain) were homogenized in 4 volumes of 0,05M phosphate buffer.
Tissular concentrations were studied by gaschromatographic analysis.

[7] = test system: patients affected by chronic bronchitis; assay: Clinical study in patients affected by chronic bronchitis (tolerability and mucus regulating activity); assay type: in vivo, human; conditions: 3×300 mg capsules a day
Method: YS 795 in capsules was administered to hospitalized patients affected by chronic bronchitis, in order to test tolerability and mucus regulating activity.
10 patients, 5 males and 5 females, of 65-70 years age, smokers or ex-smokers, were treated with YS 795 administered at a dose of 3×300 mg capsules a day, in the morning, at noon and in the night, with full stomach, for a period of 4 weeks.
All drugs having mucolytic, bronchodynamic, steroidal and balsamic activities were excluded during the observation period, whereas the "routine" therapy of concomitant diseases, based on administration of diuretic, hypotensive, antidiabetic, vasodilating and antibiotic drugs, was continued.
Before and after the treatment, tests were carried out to evaluate possible side-effects of YS 795 on hemopoietic, hepatic and renal functions; heart rate and arterial pressure were further checked during the treatment.

[8] = Solubility of the obtained compound; assay type: physicochemical

CCOC(=O)N1CSCC1C(=O)O (stereo not drawn) [YS 795, N-carbethoxy-4-thiazolidine-carboxylic acid]
LD50 ([1]; ip, female): 420 mg/kg | LD50 ([1]; ip, male): 415 mg/kg | LD50 ([1]; po, os, male): > 4000 mg/kg | LD50 ([2]; ip, female): 372 mg/kg | LD50 ([2]; ip, male): 380 mg/kg | LD50 ([2]; po, os, male): > 4000 mg/kg | IC50 (elastase): 11 mM | Effect of the time of administration on the antiemphysema effect ([3]; administered 1 hour before vs. 1 or 4 hours after elastase instillation): more marked when YS 795 was administered before elastase instillation | Antagonism of pulmonal emphysema (morphological and morphometrical analysis of pulmonal sections) ([3]; hamster, 100 mg/kg, 0,1 mg elastase intratracheal, 72 hours and 12 days): can antagonize pulmonal emphysema induced by porcine pancreatic elastase | IC50 (collagenase): 15 mM | SODIUM FLUORESCEINE % Δ vs. controls [4]: 70,9% | SODIUM FLUORESCEINE [4]: 0,53 μg/ml | GPT x ± es [5]: 220 ± 84,47 U/L | GPT % INHIBITION VS. CONTROLS [5]: 38,4% | Metabolism [6]: subsequently metabolized to n-thiazolidine-carboxylic acid | Time till which the compound is still found as such [6]: 12 h | Time of plasmatic concentration peak ([6]; after the administration): between the first and the second hour | Drug amounts in liver and lungs in comparison with thiazolidine-carboxylic acid ([6]; equimolecular amounts (100 mg/kg vs. 65 mg/kg)): remarkanly higher | Tissue distribution (liver, lung, kidney, brain) ([6]; found as such and as thiazolidine-carboxylic derivative): present in all the examined tissues | Absorption ([6]; oral and intraperitoneal route, 100 mg/kg): well adsorbed by both oral and intraperitonel route | Fluidifying and mucus regulating activities ([7]; patients with chronic bronchitis, 4 weeks): good fluidifying and mucus regulating activities | Effects on arterial pressure and heart rate ([7]; patients, 4 weeks): no clinically significant effects | Tolerability at gastric level ([7]; patients, 4 weeks): well tolerated | Effect on hemopoietic, hepatic and renal functions (laboratory tests) ([7]; patients, before and after 4 weeks): does not affect hemopoietic, hepatic and renal functions | Solubility in common organic solvents ([8]; common organic solvents): soluble in common organic solvents | Solubility in water ([8]; water): unsoluble in water

NC(CSCC(=O)O)C(=O)O (stereo not drawn) [S--CARBOXYMETHYLCYSTEIN, reference compound]
SODIUM FLUORESCEINE % Δ vs. controls [4]: 80,6% | SODIUM FLUORESCEINE [4]: 0,56 μg/ml

CC(=O)N[C@@H](CS)C(=O)O [N--ACETYLCYSTEIN, N-acetylcystein, reference compound]
GPT x ± es [5]: 168,2 ± 8,68 U/L | GPT % INHIBITION VS. CONTROLS [5]: 52,9%
